The record followed here is US12018283B2, “Method for producing insulin-producing cells” (KATAOKA CORPORATION, priority 2018, dated 2024).

This assay relates to human fibroblasts. Nature of the assay: Direct induction from human fibroblasts into insulin-producing cells (immunostaining, morphology). It is filed as cell-based. Particulars: from Table 1 and FIGS. 3 and 4; removal of one compound at a time.

With `O=c1cc(N2CCOCC2)oc2c(-c3ccccc3)cccc12` [LY294002], the “importance for conversion into cells expressing insulin” value is recorded as “of particular importance”. Regarding `C=C[C@@]1(C)CC(=O)[C@]2(O)[C@@]3(C)[C@@H](O)CCC(C)(C)[C@@H]3[C@H](O)[C@H](OC(C)=O)[C@@]2(C)O1` [forskolin, Forskolin], the “importance for conversion into cells expressing insulin” value is reported as “of particular importance”.
